Converted amounts (≈) assume the structure as drawn.

The conditions of the data set: buffer; pH 7.4; 200.0 µM.
The compound `Brc1ccsc1-c1csc(-c2ccncc2)n1` showed a kinetic solubility of 2.7 µg/mL (≈ 8.35 µM). `CC(C)c1ccc(NC(=O)CN2C(=O)NC3(CCCC3)C2=O)cc1` returned a solubility (kinetic) above 49.4 µg/mL.

On to `COc1ccc(C(=O)NC2CCSc3ccccc32)cc1` (stereo unspecified), for which the solubility (kinetic) came out at 6.3 µg/mL (≈ 21 µM). For the compound `Clc1ccc(-c2nc(N3CCOCC3)nc3ccccc23)cc1`, the kinetic solubility was below 0.2 µg/mL.

Take `NC(=O)Cn1cc(C=C2C(=O)NC(=O)NC2=O)c2ccccc21`: the kinetic solubility was determined as 11.3 µg/mL (≈ 36.2 µM). For `O=C(CSc1nc2ccccc2o1)NC1CCS(=O)(=O)C1` (stereo unspecified) the value was above 49 µg/mL; for `O=S(=O)(NC1CCSc2ccccc21)c1ccc(Cl)nc1` (stereo unspecified), 11.6 µg/mL (≈ 34 µM).

In the case of `NS(=O)(=O)c1ccc(CNC(=O)c2cccnc2Cl)cc1`, the solubility (kinetic) stood at 38.3 µg/mL (≈ 118 µM).

`CC(=O)Cc1cc2cc([N+](=O)[O-])ccc2oc1=O` showed a kinetic solubility above 37.1 µg/mL.

Turning to `N#Cc1ccc(-c2cn3c(n2)SCC3)cc1`, the kinetic solubility is above 34.1 µg/mL. For `CC(=O)c1ccc(N2CCN(C(=O)c3cc4c(s3)CCCC4)CC2)cc1` the value was 10.7 µg/mL (≈ 29 µM).

Turning to `CCCOc1ncnc2c1[nH]c1ccc(OC)cc12`, the solubility (kinetic) is 0.5 µg/mL (≈ 1.94 µM). For the compound `CCc1ccc2nc(N)sc2c1`, the kinetic solubility is above 26.7 µg/mL. As for `COc1ccc(NC(=O)CN2C(=O)NC3(CCCC3)C2=O)cc1`, the figure is 40.1 µg/mL (≈ 126 µM); as for `O=C(O)c1cccnc1SCC(=O)C12CC3CC(CC(C3)C1)C2`, above 49.7 µg/mL. The compound `Cc1ccc(C(=O)/C=C/c2ccccc2[N+](=O)[O-])cc1` returned a solubility (kinetic) of 6.8 µg/mL (≈ 25.4 µM).

`N/C(=N\c1nc2ccccc2o1)NC(=O)/C=C/c1ccccc1` yielded a solubility (kinetic) below 0.2 µg/mL. As for `CC(=O)Nc1cc2c(cc1[N+](=O)[O-])OCCO2`, the figure is above 35.7 µg/mL.

The compound `COc1ccc(CCN(C)CCCC(C#N)(c2cc(OC)c(OC)c(OC)c2)C(C)C)cc1OC.Cl` (stereo unspecified) showed a kinetic solubility above 78.2 µg/mL. For `O=C(CN1C(=O)NC2(CCCC2)C1=O)Nc1ccccc1N1CCCC1` the value was 46.4 µg/mL (≈ 130 µM); for `CCOC(=O)Cn1nc(C)n(-c2ccc(F)cc2)c1=O`, above 41.9 µg/mL.

Compound `O=C(c1ccc(F)cc1F)N1CCCc2ccccc21` yielded a solubility (kinetic) above 41 µg/mL. For `COc1ccc(C(O)C(C)NC(C)C(O)c2ccc(OC)cc2)cc1` (stereo unspecified) the value was 43.3 µg/mL (≈ 125 µM); for `O=C(Nc1ccc(Br)cn1)c1cccc(S(=O)(=O)N2CCCC2)c1`, 5.7 µg/mL (≈ 13.9 µM).

`CN(CC(=O)Nc1cccc(F)c1)C(=O)c1ccc(OCc2cn3ccccc3n2)cc1` gave a kinetic solubility of 9.2 µg/mL (≈ 21.3 µM). Regarding `Cc1occc1C(=O)N1CCCC(Nc2ccc(F)c(F)c2)C1` (stereo unspecified), the solubility (kinetic) was found to be 46.6 µg/mL (≈ 145 µM).

Compound `COc1cc2c(cc1OC)C(C)N(S(=O)(=O)c1cn(C)c(C)n1)CC2` (stereo unspecified) showed a solubility (kinetic) above 54.8 µg/mL. For `Cc1ccc(NC(=O)CN(C)C(=O)c2ccc(Cl)c(S(=O)(=O)NCc3ccco3)c2)cc1` the value was 9 µg/mL (≈ 18.9 µM). As for `CCOc1ccc(Br)cc1S(=O)(=O)Nc1cccc(S(=O)(=O)Nc2ccccc2C(=O)O)c1`, the figure is above 83.3 µg/mL; as for `N/C(CC(=O)Nc1ccc(F)c(Cl)c1)=N\OC(=O)c1cccs1`, 2.4 µg/mL (≈ 6.75 µM); as for `Cc1ccc(NC(=O)N(C)c2ccccc2)cc1`, above 36 µg/mL.

In turn, `O=S(=O)(Nc1ccc2c(c1)OCCO2)c1cccc(F)c1` yielded a kinetic solubility above 46.4 µg/mL. Turning to `COc1nccnc1NS(=O)(=O)c1ccc(N)cc1`, the solubility (kinetic) is above 42 µg/mL. For `O=C(NC(=S)Nc1ccc2[nH]c(=O)[nH]c2c1)c1ccccc1F` the value was 1.1 µg/mL (≈ 3.33 µM). For `O=C(O)CC(CN1C(=O)c2ccccc2C1=O)c1ccccc1` (stereo unspecified) the value was above 46.4 µg/mL; for `Cc1cc(C)c(OCC(=O)Nc2nc3ccccc3[nH]2)c(C)c1`, 0.3 µg/mL (≈ 0.97 µM); for `COc1cc(CN2CCN(Cc3cccc(OC)c3OC)CC2)cc(OC)c1`, 47.8 µg/mL (≈ 124 µM).

`O=C(Cn1ccccc1=O)c1ccc(Cl)cc1` displayed a kinetic solubility of 31.4 µg/mL (≈ 127 µM). For `COc1ccccc1NC(=O)Nc1ccc2c(c1)CCC2` the value was below 0.3 µg/mL; for `Cc1ccc(C(=O)OCC(=O)N2CCCCCC2)cc1S(=O)(=O)N1CCOCC1`, above 63.7 µg/mL; for `CC(NC(=O)c1ccccc1Cl)C(=O)OCc1cn2cc(Cl)ccc2n1` (stereo unspecified), above 58.8 µg/mL. As for `COc1ccc(NC(=O)CN2CCc3ccccc3C2)cc1OC`, the figure is above 49 µg/mL; as for `Cc1ccc(Nc2c([N+](=O)[O-])ccc3nonc23)cc1C`, 0.4 µg/mL (≈ 1.41 µM); as for `Cc1ccc(NC(=O)Cn2nc(C)c(S(=O)(=O)N(C)C)c2C)cc1`, above 52.6 µg/mL. For `Cc1ccc(C(C)NC(=O)C2CCCC2)cc1C` (stereo unspecified) the value was 31.4 µg/mL (≈ 128 µM). As for `COc1ccc2nc(NC(=O)Nc3ccccc3)sc2c1`, the solubility (kinetic) was below 0.2 µg/mL. As for `O=C(CC1CC2CCC1C2)NC1CCCCCCC1` (stereo unspecified), the figure is 4.5 µg/mL (≈ 17.1 µM); as for `COc1ccc(CNC(=S)NC2CCCCC2)cc1`, 38.4 µg/mL (≈ 138 µM).

The compound `COc1cc(/C=C/c2nc3ccccc3c(=O)[nH]2)ccc1OC(F)F` returned a solubility (kinetic) of 1.9 µg/mL (≈ 5.52 µM). For `CCCn1nc(C(=O)N2CCN(c3ccccn3)CC2)c2ccccc2c1=O` the value was above 56.6 µg/mL. For `COc1ccc(CC(=O)OCC(=O)Nc2ccc3c(c2)OCO3)cc1` the value was above 51.5 µg/mL.

The solubility (kinetic) is the concentration staying in solution when a stock, usually in DMSO, is diluted into the medium.

The values above are taken from PubChem BioAssay AID1996.
